Like-named read-outs stand apart in the source and are kept apart here.
Legend:
[1] = tested on: Aβ42/Aβtotal in CHO cells stably overexpressing human APP; assay: Aβ sandwich ELISA, CHO cells stably overexpressing human APP; assay type: cell-based, Chinese hamster
[2] = tested on: Aβ42/Aβtotal in HEK293 cells stably overexpressing human APP; assay type: cell-based

## ω-conotoxin GVIA
[1]
  ratio of Aβ42/Aβtotal (Aβ42 generation): no significant effect
[2]
  ratio of Aβ42/Aβtotal (Aβ42 generation): no significant effect

## COc1ccc(CCCOC(Cn2ccnc2)c2ccc(OC)cc2)cc1 (stereo not shown) [SKF96365]
[1]; CHO-APP, SKF96365 100 μM, nifedipine 1 μM, ω-conotoxin GVIA 1 μM, 12 hour treatment
  ratio of Aβ42/Aβtotal (Aβ42 generation): specifically elevated
[2]; HEK293-APP, SKF96365 100 μM, nifedipine 1 μM, ω-conotoxin GVIA 1 μM, 12 hour treatment
  ratio of Aβ42/Aβtotal (Aβ42 generation): specifically elevated

Reference: US20020015941A1, “Method for treatment of neurodegenerative diseases” (The General Hospital Corporation, priority 2000, published 2002)
